Columns and labels:
[1] = type: physicochemical
Text: For the test, the prepared surfactant solution samples were filled into a clean, dry cuvette and then scattered in a spectrophotometer at 500 nm wavelength using a nephelometric pad at ambient temperature. The turbidity of the sample to be tested is compared to the light scattering of pure water (0%) and the reference opal body (100%).

[2] = Interfacial tension (IFT), spinning drop; type: physicochemical; conditions: for IFT (mN/m), concentration 0.1 g/l / IFT (mN/m), concentration 1 g/l / IFT (mN/m), concentration 5 g/l: commercial surfactants; for IFT (mN/m) 0.1 g/l / IFT (mN/m) 1.0 g/l: 40° C., 4500 rpm
Protocol: The interfacial tension (IFT) in the following examples is measured in a spinning drop type tensile meter at 4500 rpm at 40° C. temperature. The test capillary was filled with various concentrations of surfactant solution into which a drop of oil of Algyő type oil was injected through a syringe. In steady state, the interfacial tension between the surfactant solution and the crude oil can be calculated based on the geometric dimensions of the droplet taken by the oil drop.

[3] = Oil solubility (turbidity of 1% in model oil); type: physicochemical; conditions: for Solubility in oil, appearance / dissolution: symbol or word
Protocol: In the course of the test, 0.2 g of the surfactant to be tested is weighed into 20 g of model oil and then dissolved for 1 hour at 60° C. with vigorous stirring. After cooling, the samples were poured into a clean, dry cuvette and then scattered at 500 nm with a spectrophotometer at ambient temperature. As reference, the light scattering of pure oil (0%) and standard opal body (100%) is used.

[4] = Thermal (heat/hydrolytic) stability, 90° C., 3 hours, transmittance; type: physicochemical; conditions: for Heat stability (90° C., 3 hours), appearance: appearance symbol; for Heat stability (90° C., 3 hours) (%): turbidity number

| Compound | Water solubility [1] [%] | Water solubility (%) [1] [%] | Water solubility, appearance [1] | IFT (mN/m), concentration 0.1 g/l [2] [mN/m] | IFT (mN/m), concentration 1 g/l [2] [mN/m] | IFT (mN/m), concentration 5 g/l [2] [mN/m] | IFT (mN/m) 0.1 g/l [2] [mN/m] | IFT (mN/m) 1.0 g/l [2] [mN/m] | Solubility in oil, appearance / dissolution [3] | Heat stability (90° C., 3 hours), appearance [4] | Heat stability (90° C., 3 hours) (%) [4] [%] | Solubility in oil (%) ([3]; turbidity number) |
| --- | --- | --- | --- | --- | --- | --- | --- | --- | --- | --- | --- | --- |
| 2-methylpentane-1,5-diammonium-bis(C14-C17 sec-alkylsulphonate) [Example 5] | 100 | 100 | m. |  |  |  |  |  |  |  |  |  |
| CCCCCCCCCCCCc1ccc(S(=O)(=O)[O-])cc1.[Na+] [DBSNa-salt 30% solution, Sodium salt of dodecylbenzylsulfonic acid, reference compound] |  |  |  | 0.34 | 0.63 | 0.88 |  |  |  |  |  |  |
| CCCCCCCCCCCCc1ccc(S(=O)(=O)O)cc1.CCCCCCCCCCCCc1ccc(S(=O)(=O)O)cc1.NCCCCCCN [Example 21] |  | 100 | m. |  |  |  | 0.019 | 0.015 | n.o. | m. | 100 |  |
| CCCCCCCCCCCCc1ccc(S(=O)(=O)O)cc1.CCCCCCCCCCCCc1ccc(S(=O)(=O)O)cc1.NCCCCN [Example 23] |  | 100 | m. |  |  |  | 0.120 | 0.170 | n.o. | b. | 20 |  |
| CCCCCCCCCCCCc1ccc(S(=O)(=O)O)cc1.CCCCCCCCCCCCc1ccc(S(=O)(=O)O)cc1.NCCCOCCCCOCCCN [Example 24] |  | 100 | m. |  |  |  | 0.042 | 0.103 | op. | op. | 100 | 18 |
| CCCCCCCCCCCCc1ccc(S(=O)(=O)O)cc1.CCCCCCCCCCCCc1ccc(S(=O)(=O)O)cc1.CN(C)CCCNCCCN(C)C.Cl [Example 38] |  |  |  |  |  |  | 0.15 | 0.16 |  | op. | 31 |  |
| CC(O)CO (stereo not drawn) [Propylene glycol, reference compound] |  |  |  | 11.53 | 16.14 | 15.4 |  |  |  |  |  |  |
| bis(C14-C17 sec-alkyl)-sulphonate-poly (propylene-glycol)-bis-(2-ammonium-propyl)-ether salt [Example 3] | 4 |  |  |  |  |  |  |  |  |  |  |  |

Source: patent US11634624B2, “Surfactants for enhanced oil recovery” (MOL MAGYAR OLAJ- ÉS GÁZIPARI NYILVÁNOSAN MŰKÖDŐ …, priority 2018, dated 2023)
